{"source": "ChEMBL document CHEMBL4033752", "about": "“Discovery of Potent and Selective Tricyclic Inhibitors of Bruton's Tyrosine Kinase with Improved Druglike Properties” (ACS Med Chem Lett, 2017)", "key": {"[1]": {"assay": "Apparent permeability from apical side to basolateral side in MDCK cells at 10 uM after 3 hrs by LC-MS/MS analysis", "type": "ADME, cell-based, Canis lupus familiaris", "details": "dog"}, "[2]": {"assay": "Total clearance in rat at 1 mg/kg, iv", "type": "ADME, organism-based", "details": "in vivo"}, "[3]": {"assay": "Oral bioavailability in rat at 5 mg/kg", "type": "ADME, organism-based", "details": "in vivo"}, "[4]": {"target": "Tyrosine-protein kinase BTK (Mus musculus, UniProt P35991)", "sequence (P35991 whole entry)": "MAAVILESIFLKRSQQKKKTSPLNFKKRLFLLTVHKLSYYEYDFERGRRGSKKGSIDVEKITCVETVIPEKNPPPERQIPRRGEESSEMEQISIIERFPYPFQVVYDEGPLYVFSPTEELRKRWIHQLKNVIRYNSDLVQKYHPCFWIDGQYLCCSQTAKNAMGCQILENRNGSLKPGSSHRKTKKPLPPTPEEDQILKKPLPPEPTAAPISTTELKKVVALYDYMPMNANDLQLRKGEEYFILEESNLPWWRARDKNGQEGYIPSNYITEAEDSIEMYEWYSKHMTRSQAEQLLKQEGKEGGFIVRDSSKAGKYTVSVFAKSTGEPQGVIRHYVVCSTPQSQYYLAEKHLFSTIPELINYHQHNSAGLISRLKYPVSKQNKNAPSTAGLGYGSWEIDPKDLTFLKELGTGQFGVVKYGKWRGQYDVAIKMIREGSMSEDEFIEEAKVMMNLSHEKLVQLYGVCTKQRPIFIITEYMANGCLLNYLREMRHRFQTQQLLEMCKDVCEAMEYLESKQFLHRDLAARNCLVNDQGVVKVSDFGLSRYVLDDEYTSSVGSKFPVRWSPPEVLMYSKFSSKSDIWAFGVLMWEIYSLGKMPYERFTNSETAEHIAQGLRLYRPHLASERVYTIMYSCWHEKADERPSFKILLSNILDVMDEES"}, "[5]": {"details": "buffer, pH 7.4", "description": "Kinetic solubility of the compound at pH 7.4"}, "[6]": {"target": "T1, Tyrosine-protein kinase BTK (Homo sapiens, UniProt Q06187)", "T1 sequence (Q06187 whole entry)": "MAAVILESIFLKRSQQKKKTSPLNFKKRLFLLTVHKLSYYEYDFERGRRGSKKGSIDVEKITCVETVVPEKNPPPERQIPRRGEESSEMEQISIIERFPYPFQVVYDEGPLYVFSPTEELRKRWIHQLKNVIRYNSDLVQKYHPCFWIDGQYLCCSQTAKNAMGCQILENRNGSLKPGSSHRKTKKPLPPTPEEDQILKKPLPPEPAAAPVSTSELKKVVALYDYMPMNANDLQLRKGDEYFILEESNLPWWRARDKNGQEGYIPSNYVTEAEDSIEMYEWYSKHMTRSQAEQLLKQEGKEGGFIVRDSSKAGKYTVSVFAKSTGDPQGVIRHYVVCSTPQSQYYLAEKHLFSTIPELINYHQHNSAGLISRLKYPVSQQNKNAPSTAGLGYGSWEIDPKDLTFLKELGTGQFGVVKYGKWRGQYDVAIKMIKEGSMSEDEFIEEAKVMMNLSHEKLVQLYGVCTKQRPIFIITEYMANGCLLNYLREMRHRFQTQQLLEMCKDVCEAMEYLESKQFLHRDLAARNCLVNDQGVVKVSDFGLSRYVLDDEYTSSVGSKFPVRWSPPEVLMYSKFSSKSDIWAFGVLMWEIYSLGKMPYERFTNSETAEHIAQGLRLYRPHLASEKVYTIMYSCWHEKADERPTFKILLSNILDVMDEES", "description": "Inhibition of BTK in goat anti-human IgM F(ab')2-stimulated human whole blood assessed as suppression of BCR-induced CD69 expression on B cells preincubated for 1 hr followed by blood stimulation measured after 18 hrs by FACS analysis"}, "[7]": {"target": "T1, Tyrosine-protein kinase BTK", "remark": "listed apart in the source", "description": "Inhibition of recombinant human full length His-tagged BTK expressed in baculovirus expression system by Z-LYTE assay"}, "Rattus norvegicus [8]": {"system": "Rattus norvegicus", "assay": "Antiinflammatory activity in Lewis rat CIA model assessed as reduction in ankle thickness at 0.05 mg/kg measured between day 10 and day 17", "type": "functional, organism-based"}, "Mus musculus [9]": {"system": "Mus musculus", "assay": "Oral bioavailability in mouse at 5 mg/kg", "type": "ADME, organism-based", "details": "in vivo"}, "[10]": {"assay": "Total clearance in mouse", "type": "ADME, organism-based", "details": "in vivo"}, "Rattus norvegicus [11]": {"system": "Rattus norvegicus", "assay": "Antiinflammatory activity in Lewis rat CIA model assessed as reduction in ankle thickness administered via oral gavage as bid measured between day 10 and day 17", "type": "functional"}, "Canis familiaris": {"system": "Canis familiaris", "assay": "Oral bioavailability in dog at 5 mg/kg", "type": "ADME, organism-based, Canis lupus familiaris", "details": "in vivo"}, "Rattus norvegicus [12]": {"system": "Rattus norvegicus", "assay": "Oral bioavailability in rat at 100 mg/kg", "type": "ADME, organism-based", "details": "in vivo"}, "[13]": {"assay": "Total clearance in cynomolgus monkey", "type": "ADME, Macaca fascicularis", "details": "in vivo"}, "[14]": {"assay": "Total clearance in dog", "type": "ADME, Canis lupus familiaris", "details": "in vivo"}, "Mus musculus [15]": {"system": "Mus musculus", "assay": "Oral bioavailability in mouse at 100 mg/kg", "type": "ADME, organism-based", "details": "in vivo"}}, "note": "Calls of active or inactive are those of the source. The calls are words filed in the database; no cut-off is given here."}
{"smiles": "Cn1cc(-c2cc(F)cc(N3CCn4c(cc5c4CCCC5)C3=O)c2CO)cc(Nc2ccc(N3CCN(C4COC4)CC3)cn2)c1=O", "values": [{"measurement": "Papp A→B at 3 h, 10 µM", "setting": "[1]", "result": "> 10", "unit": "×10⁻⁶ cm/s"}, {"measurement": "clearance", "setting": "[2]", "result": 20, "unit": "mL/min/kg"}, {"measurement": "bioavailability", "setting": "[3]", "result": 27, "unit": "%"}, {"measurement": "IC50", "setting": "[4]", "result": 10, "unit": "nM"}, {"measurement": "Kinetic_solubility", "setting": "[5]", "result": 73, "unit": "µM"}]}
{"smiles": "CN1CCN(c2ccc(Nc3cc(-c4cccc(N5CCn6c(cc7c6CCCC7)C5=O)c4CO)cn(C)c3=O)nc2)CC1", "values": [{"measurement": "Papp A→B at 3 h, 10 µM", "setting": "[1]", "result": "1 to 10", "unit": "×10⁻⁶ cm/s"}, {"measurement": "clearance", "setting": "[2]", "result": 40, "unit": "mL/min/kg"}, {"measurement": "bioavailability", "setting": "[3]", "result": 20, "unit": "%"}, {"measurement": "IC50", "setting": "[6]", "result": 45, "unit": "nM"}, {"measurement": "IC50", "setting": "[7]", "result": 4, "unit": "nM"}, {"measurement": "IC50", "setting": "[4]", "result": 107, "unit": "nM"}, {"measurement": "Kinetic_solubility", "setting": "[5]", "result": 115, "unit": "µM"}]}
{"smiles": "C[C@@H]1C[C@H]2[C@@H]3CCC4=CC(=O)C=C[C@]4(C)[C@@]3(F)[C@@H](O)C[C@]2(C)[C@@]1(O)C(=O)CO", "values": [{"measurement": "Activity", "setting": "Rattus norvegicus [8]", "result": "Active"}]}
{"smiles": "CN1CCN(c2ccc(Nc3cc(-c4cccc(N5CCc6c(sc7c6CC(C)(C)C7)C5=O)c4CO)cn(C)c3=O)nc2)CC1", "values": [{"measurement": "clearance", "setting": "[2]", "result": 29, "unit": "mL/min/kg"}, {"measurement": "bioavailability", "setting": "[3]", "result": 37, "unit": "%"}]}
{"smiles": "CN1CCN(c2ccc(Nc3cc(-c4cc(F)cc(N5CCn6c(cc7c6CCCC7)C5=O)c4CO)cn(C)c3=O)nc2)CC1", "values": [{"measurement": "Papp A→B at 3 h, 10 µM", "setting": "[1]", "result": "1 to 10", "unit": "×10⁻⁶ cm/s"}, {"measurement": "clearance", "setting": "[2]", "result": 37, "unit": "mL/min/kg"}, {"measurement": "bioavailability", "setting": "[3]", "result": 52, "unit": "%"}, {"measurement": "IC50", "setting": "[4]", "result": 22, "unit": "nM"}, {"measurement": "Kinetic_solubility", "setting": "[5]", "result": 71, "unit": "µM"}]}
{"smiles": "Cn1cc(-c2cccc(N3CCc4cc(C(C)(C)C)ccc4C3=O)c2CO)cc(Nc2ccncn2)c1=O", "values": [{"measurement": "IC50", "setting": "[4]", "result": 51, "unit": "nM"}, {"measurement": "Kinetic_solubility", "setting": "[5]", "result": 2, "unit": "µM"}]}
{"smiles": "Cn1cc(-c2cccc(N3CCc4c(sc5c4CC(C)(C)C5)C3=O)c2CO)cc(Nc2ccncn2)c1=O", "values": [{"measurement": "F", "setting": "Mus musculus [9]", "result": 77, "unit": "%"}, {"measurement": "clearance", "setting": "[10]", "result": 22, "unit": "mL/min/kg"}, {"measurement": "Activity", "setting": "Rattus norvegicus [11]", "result": "Dose-dependent effect"}, {"measurement": "F", "setting": "Canis familiaris", "result": 27, "unit": "%"}, {"measurement": "F", "setting": "Rattus norvegicus [12]", "result": 23, "unit": "%"}, {"measurement": "clearance", "setting": "[13]", "result": 17, "unit": "mL/min/kg"}, {"measurement": "clearance", "setting": "[14]", "result": 7, "unit": "mL/min/kg"}, {"measurement": "F", "setting": "Mus musculus [15]", "result": 45, "unit": "%"}]}
{"smiles": "Cn1cc(-c2cccc(N3CCn4c(cc5c4CCCC5)C3=O)c2CO)cc(Nc2ccc(N3CCN(C4COC4)CC3)cn2)c1=O", "values": [{"measurement": "Papp A→B at 3 h, 10 µM", "setting": "[1]", "result": "1 to 10", "unit": "×10⁻⁶ cm/s"}, {"measurement": "clearance", "setting": "[2]", "result": 14, "unit": "mL/min/kg"}, {"measurement": "bioavailability", "setting": "[3]", "result": 46, "unit": "%"}, {"measurement": "IC50", "setting": "[6]", "result": 69, "unit": "nM"}, {"measurement": "IC50", "setting": "[7]", "result": 8, "unit": "nM"}, {"measurement": "IC50", "setting": "[4]", "result": 137, "unit": "nM"}, {"measurement": "Kinetic_solubility", "setting": "[5]", "result": 99, "unit": "µM"}]}
{"smiles": "Cn1cc(-c2cccc(N3CCc4c(sc5c4CCCC5)C3=O)c2CO)cc(Nc2ccncn2)c1=O", "values": [{"measurement": "bioavailability", "setting": "[3]", "result": 90, "unit": "%"}]}
{"smiles": "Cc1c(NC(=O)c2cc3c(s2)CCCC3)cccc1-c1cc(Nc2ccncn2)c(=O)n(C)c1", "values": [{"measurement": "clearance", "setting": "[2]", "result": 2, "unit": "mL/min/kg"}, {"measurement": "bioavailability", "setting": "[3]", "result": 45, "unit": "%"}, {"measurement": "IC50", "setting": "[7]", "result": 42, "unit": "nM"}, {"measurement": "IC50", "setting": "[4]", "result": 740, "unit": "nM"}]}
